# Measured values reported in PMC6941357, “An in vitro toolbox to accelerate anti-malarial drug discovery and development” (Malaria Journal, 2020).
# Values joined by “and” are separate entries in the source; they are usually repeats but may differ in a detail not shown here. Equal values may be shown once. Read-outs that look alike come from different tables or passages of the source. Marks after values point to notes of the source that are not given here.
# Key:
# [1] = Ionization constants by potentiometric titration; assay type: physicochemical; conditions: mean ± SD, n = 3 titrations
# Procedure, shortened: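 Glass electrode calibrated at pH 2, 4, 7 and 10; reagents standardized against potassium hydrogen phthalate, titrants protected from CO2. Samples diluted 1:10 with water in the titration vessel, typical final compound concentration 0.5 mM.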
# [2] = Solubility limited absorbable dose (SLAD) calculation with predicted human jejunal Peff; conditions: for An (absorption number): Peff × tres/R, minimum 1; for Permeability classification: based on ref 80 and control compounds; for Predicted human Peff: from Caco-2 Papp via calibration plot; for Ssi (estimated solubility in the small intestine): based on measured FaSSIF solubility
# Description: Predicted Peff values were obtained from a calibration plot of literature Peff values vs measured Caco-2 Papp using either buffer or plasma as the transport medium (see Results section).
# [3] = biological target: CYP2C19 (Homo sapiens, UniProt P33261); test: Cytochrome P450 inhibition in human liver microsomes
# Procedure, shortened: (§1)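 LC–MS measurement of the metabolite formed by one CYP isoform from its probe substrate in human liver microsomes, with and without test compound, provided the data. Values are percent inhibition of that metabolic pathway.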
# [4] = biological target: CYP2C9 (Homo sapiens, UniProt P11712); test: as above
# Procedure, shortened: as §1
# [5] = biological target: T1, CYP1A2 (Homo sapiens, UniProt P05177); test: as above
# T1 sequence (P05177 1-516): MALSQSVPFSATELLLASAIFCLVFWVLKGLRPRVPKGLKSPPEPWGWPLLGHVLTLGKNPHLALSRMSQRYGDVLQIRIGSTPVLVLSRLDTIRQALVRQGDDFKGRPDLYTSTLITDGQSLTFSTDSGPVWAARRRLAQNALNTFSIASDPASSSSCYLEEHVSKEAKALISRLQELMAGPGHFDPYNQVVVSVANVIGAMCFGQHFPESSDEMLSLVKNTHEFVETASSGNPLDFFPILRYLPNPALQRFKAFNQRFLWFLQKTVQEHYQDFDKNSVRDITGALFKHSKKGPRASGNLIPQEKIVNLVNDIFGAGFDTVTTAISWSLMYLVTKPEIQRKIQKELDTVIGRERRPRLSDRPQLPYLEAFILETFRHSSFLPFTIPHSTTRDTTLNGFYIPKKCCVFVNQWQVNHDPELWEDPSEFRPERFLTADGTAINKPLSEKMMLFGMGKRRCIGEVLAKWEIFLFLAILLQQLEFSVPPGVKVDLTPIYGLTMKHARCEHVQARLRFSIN
# Procedure, shortened: as §1
# [6] = tested on: human liver microsomes; test: in vitro; conditions: for HLM CLint: microsomes
# Procedure, shortened: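 Intrinsic clearance (µL/min/mg protein) came from the first-order substrate-depletion rate in human liver microsomes, using only the initial log-linear phase where kinetics deviated. Samples were quenched at 2, 5, 15, 30 and 60 min and quantified by LC–MS. Unbound CLint was obtained by dividing by microsomal fu.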
# [7] = Solubility in biorelevant media
# Procedure, shortened: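 LC–MS quantification of supernatants, after two centrifugations, in triplicate against calibration standards. Media: FaSSGF sampled at 1 h; FaSSIF-V2, FeSSIF-V2 and pH 7.4 PBS sampled at 5–6 h; all at 37 °C on an orbital mixer at 600 rpm.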
# Chain of CYP2C19 (P33261 whole entry, canonical isoform): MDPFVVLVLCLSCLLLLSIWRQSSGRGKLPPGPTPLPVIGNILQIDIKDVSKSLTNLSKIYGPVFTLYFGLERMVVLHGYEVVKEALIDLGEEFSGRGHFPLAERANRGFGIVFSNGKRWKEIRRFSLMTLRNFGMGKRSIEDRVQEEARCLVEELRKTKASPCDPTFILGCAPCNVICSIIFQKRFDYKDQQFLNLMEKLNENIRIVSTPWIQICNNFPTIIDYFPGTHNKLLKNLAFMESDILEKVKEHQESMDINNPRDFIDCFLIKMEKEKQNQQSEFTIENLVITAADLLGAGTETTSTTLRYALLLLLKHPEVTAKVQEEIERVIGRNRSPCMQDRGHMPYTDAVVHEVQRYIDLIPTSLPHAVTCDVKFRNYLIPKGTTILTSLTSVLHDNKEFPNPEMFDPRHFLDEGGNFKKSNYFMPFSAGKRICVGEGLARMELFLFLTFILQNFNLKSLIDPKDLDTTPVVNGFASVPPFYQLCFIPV
# Chain of CYP2C9 (P11712 whole entry): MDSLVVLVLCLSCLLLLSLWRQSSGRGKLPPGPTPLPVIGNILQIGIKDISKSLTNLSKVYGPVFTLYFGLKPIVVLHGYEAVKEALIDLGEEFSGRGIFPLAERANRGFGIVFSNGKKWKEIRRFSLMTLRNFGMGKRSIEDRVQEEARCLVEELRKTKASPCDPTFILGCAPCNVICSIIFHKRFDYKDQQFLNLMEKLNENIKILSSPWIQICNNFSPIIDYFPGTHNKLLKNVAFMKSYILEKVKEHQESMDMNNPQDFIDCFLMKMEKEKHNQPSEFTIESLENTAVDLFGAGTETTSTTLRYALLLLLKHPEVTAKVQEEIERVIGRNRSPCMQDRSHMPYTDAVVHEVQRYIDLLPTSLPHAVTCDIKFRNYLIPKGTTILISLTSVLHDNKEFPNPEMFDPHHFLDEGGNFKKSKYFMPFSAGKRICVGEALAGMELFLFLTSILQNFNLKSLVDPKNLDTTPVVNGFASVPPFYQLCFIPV
SMILES,An (absorption number) [2],Permeability classification [2],Predicted human Peff [2],SLAD [2] [mg],Ssi (estimated solubility in the small intestine) [2] [µg/mL],CYP2C19 % inhibition at max conc ([3]; microsomes),IC50 ([3]; microsomes) [µM],CYP2C9 % inhibition at max conc ([4]; microsomes),IC50 ([4]; microsomes) [µM],CYP1A2 % inhibition at max conc ([5]; microsomes),IC50 ([5]; microsomes) [µM],Unbound CLint [6],HLM CLint ([6]; human),Solubility FaSSGF (1 h) ([7]; 37 °C),Solubility FaSSIF-V2 (5–6 h) ([7]; 37 °C),Solubility FeSSIF-V2 (5–6 h) ([7]; 37 °C),Solubility PBS7.4 (5–6 h) ([7]; 37 °C),also measured
"CC(C)(N)CNC(=O)C[C@H]1CC[C@]2(CC1)OO[C@]1(O2)C2CC3CC(C2)CC1C3 [OZ277, Arterolane]",3.2,High (> 85% absorption (high)),2.7 10^−4 cm/s,,,,,,,,,,,,,,,"pKa ([1]; aqueous solution (DMSO stock diluted 1:10 with water), basic pKa (B), read-out: Measured pKa): 8.9 ± 0.16; solubility ([2]; FaSSIF): > 2000 µg/mL; SLAD ([2]; Ssi × V (500 mL) × Mp): > 3240 mg; IC50 [3]: > 20 µM; IC50 [4]: > 20 µM; IC50 [5]: > 20 µM; CYP1A2 % inhibition at max conc ([5]; human liver microsomes, at max conc, nmi = no measurable inhibition): nmi; Unbound CLint ([6]; human, 1 µM, pH 7.4): < 159 µL/min/mg; FaSSGF solubility ([7]; FaSSGF): > 2000 µg/mL; solubility at 1 h ([7]; FaSSGF, 37 °C, fassgf or other biorelevant, thermodynamic from solid): > 2000 µg/mL and > 5000 µM; FaSSIF solubility ([7]; FaSSIF): > 2000 µg/mL; solubility ([7]; FaSSIF-V2, 37 °C, fassif, thermodynamic from solid): > 2000 µg/mL and > 5100 µM; FeSSIF solubility ([7]; FeSSIF): > 2000 µg/mL; solubility ([7]; FeSSIF-V2, 37 °C, fessif, thermodynamic from solid): > 2000 µg/mL and > 5000 µM; solubility ([7]; phosphate buffered saline pH 7.4, 37 °C, pH 7.4, aqueous buffer, thermodynamic from solid): 198 µg/mL and 504 µM"
CC(C)(C)NCc1cc(C(C)(C)C)cc(-c2cnc(C(F)(F)F)c(F)c2)c1O [JPC3210],13,High (> 85% absorption (high)),11 10^−4 cm/s,51,7.60,nmi,> 20,nmi,> 20,nmi,> 20,328 µL/min/mg,9.50 µL/min/mg,213 µg/mL and 535 µM,7.60 µg/mL and 19.1 µM,131 µg/mL and 329 µM,0.800 µg/mL and 2.01 µM,Measured pKa ([1]; acidic pKa (A)): 5.3 ± 0.04 (A)
CCN(CC)CCCNc1ccnc2cc(Cl)ccc12.Cl.Cl [AQ-13],2.2,High (> 85% absorption (high)),1.9 10^−4 cm/s,> 2250,> 2000,nmi,> 20,nmi,> 20,nmi,> 20,< 10.6^c µL/min/mg,< 7^b µL/min/mg,> 2000 µg/mL and > 6850 µM,> 2000 µg/mL and > 6850 µM,> 2000 µg/mL and > 6850 µM,1480 µg/mL and 5070 µM,Measured pKa ([1]; basic pKa (B)): 7.6 ± 0.2 (B)
